# Measured values: PubChem BioAssay (NCI)
#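 Grown in 96-well plates, cells were treated for 48 hours with each compound at five concentrations. Insufficient inhibition: endpoint recorded as highest concentration tested. Abbreviation: GI50, concentration required for 50% inhibition of growth. The concentration for full growth arrest is given as TGI.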
# What was measured:
# Assay in all cases: NCI tumour cell line growth inhibition, 48 h
# HOP-62 NSCLC = tested on: HOP-62 NSCLC
# HOP-92 NSCLC = tested on: HOP-92 NSCLC
# HCT-15 colon = tested on: HCT-15 colon
# SK-MEL-2 melanoma = tested on: SK-MEL-2 melanoma
# EKVX NSCLC = tested on: EKVX NSCLC
# U251 CNS = tested on: U251 CNS
# T-47D breast = tested on: T-47D breast
# RPMI-8226 leukemia = tested on: RPMI-8226 leukemia
# PC-3 prostate = tested on: PC-3 prostate
# NCI-H226 lung = tested on: NCI-H226 lung
# MDA-MB-435 = tested on: MDA-MB-435
# SF-539 CNS = tested on: SF-539 CNS
# UACC-257 melanoma = tested on: UACC-257 melanoma
# KM12 colon = tested on: KM12 colon
# IGROV1 ovarian = tested on: IGROV1 ovarian
# DU-145 prostate = tested on: DU-145 prostate
# OVCAR-5 ovarian = tested on: OVCAR-5 ovarian
# SF-268 CNS = tested on: SF-268 CNS
# OVCAR-4 ovarian = tested on: OVCAR-4 ovarian
# UO-31 renal = tested on: UO-31 renal
# SF-295 CNS = tested on: SF-295 CNS
# HS 578T breast = tested on: HS 578T breast
# M14 melanoma = tested on: M14 melanoma
# CCRF-CEM leukemia = tested on: CCRF-CEM leukemia
# TK-10 renal = tested on: TK-10 renal
# SNB-19 CNS = tested on: SNB-19 CNS
# NCI/ADR-RES ovarian = tested on: NCI/ADR-RES ovarian
# SNB-75 CNS = tested on: SNB-75 CNS
# OVCAR-3 ovarian = tested on: OVCAR-3 ovarian
structure (smiles),measurement,setting,value
O=C1C(=O)c2c(nc3ccc(Cl)cn23)-c2ccccc21,GI50,HOP-62 NSCLC,0.666 µM
same,TGI,HOP-62 NSCLC,1.66 µM
same,GI50,HOP-92 NSCLC,0.674 µM
same,TGI,HOP-92 NSCLC,1.98 µM
same,GI50,HCT-15 colon,1.08 µM
same,TGI,HCT-15 colon,2.73 µM
same,GI50,SK-MEL-2 melanoma,0.432 µM
same,TGI,SK-MEL-2 melanoma,1.61 µM
same,GI50,EKVX NSCLC,1.65 µM
same,TGI,EKVX NSCLC,3.38 µM
same,GI50,U251 CNS,0.274 µM
same,TGI,U251 CNS,0.721 µM
same,GI50,T-47D breast,0.394 µM
same,TGI,T-47D breast,1.6 µM
same,GI50,RPMI-8226 leukemia,0.35 µM
same,TGI,RPMI-8226 leukemia,2.88 µM
same,GI50,PC-3 prostate,1.2 µM
same,TGI,PC-3 prostate,10.6 µM
same,GI50,NCI-H226 lung,1.65 µM
same,TGI,NCI-H226 lung,3.49 µM
same,GI50,MDA-MB-435,0.183 µM
same,TGI,MDA-MB-435,0.35 µM
same,GI50,SF-539 CNS,0.189 µM
same,TGI,SF-539 CNS,0.358 µM
same,GI50,UACC-257 melanoma,0.284 µM
same,TGI,UACC-257 melanoma,0.803 µM
same,GI50,KM12 colon,1.78 µM
same,TGI,KM12 colon,3.89 µM
same,GI50,IGROV1 ovarian,0.646 µM
same,GI50,DU-145 prostate,0.223 µM
same,TGI,DU-145 prostate,0.452 µM
same,GI50,OVCAR-5 ovarian,0.593 µM
same,TGI,OVCAR-5 ovarian,1.15 µM
same,GI50,SF-268 CNS,0.307 µM
same,TGI,SF-268 CNS,1.18 µM
same,GI50,OVCAR-4 ovarian,0.207 µM
same,TGI,OVCAR-4 ovarian,0.463 µM
same,GI50,UO-31 renal,0.306 µM
same,TGI,UO-31 renal,3.47 µM
same,GI50,SF-295 CNS,1.52 µM
same,TGI,SF-295 CNS,3.13 µM
same,GI50,HS 578T breast,0.239 µM
same,TGI,HS 578T breast,0.74 µM
same,GI50,M14 melanoma,1.3 µM
same,TGI,M14 melanoma,3.05 µM
same,GI50,CCRF-CEM leukemia,0.411 µM
same,TGI,CCRF-CEM leukemia,3.68 µM
same,GI50,TK-10 renal,1.8 µM
same,TGI,TK-10 renal,3.59 µM
same,GI50,SNB-19 CNS,1.32 µM
same,TGI,SNB-19 CNS,3 µM
same,GI50,NCI/ADR-RES ovarian,0.344 µM
same,TGI,NCI/ADR-RES ovarian,2.04 µM
same,GI50,SNB-75 CNS,1.25 µM
same,TGI,SNB-75 CNS,2.61 µM
same,GI50,OVCAR-3 ovarian,0.249 µM
